Laboratory results taken from ChEMBL document CHEMBL1201862, “PubChem BioAssay data set” (2004).
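Protocol summary: plate cells (96-well), add compound at 5 concentrations, incubate 48 h, interpolate endpoints linearly. GI50 = concentration required for 50% inhibition of growth.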 Calls of active or inactive are those of the source. Rule as the data show it: active = GI50 up to about 1.1 µM and inactive = higher.

Tests used:
Test in all cases: growth of human tumour cells (NCI), 48 h
[1] = system: HOP-62
[2] = system: NCI-H460
[3] = system: A549
[4] = system: OVCAR-8
[5] = system: NCI-H522
[6] = system: KM12
[7] = system: NCI-H23
[8] = system: SN12C
[9] = system: HCT-15
[10] = system: SF-268
[11] = system: OVCAR-3
[12] = system: M19-MEL
[13] = system: RXF 393
[14] = system: DLD-1
[15] = system: SNB-75
[16] = system: HCC 2998
[17] = system: OVCAR-5
[18] = system: SF-539
[19] = system: Malme-3M
[20] = system: HT-29
[21] = system: SF-295
[22] = system: TK-10
[23] = system: IGROV-1
[24] = system: COLO 205
[25] = system: LOX IMVI
[26] = system: SK-MEL-5
[27] = system: RPMI-8226
[28] = system: ACHN
[29] = system: SNB-19
[30] = system: SW-620
[31] = system: 786-0
[32] = system: M14
[33] = system: CAKI-1
[34] = system: MOLT-4
[35] = system: U-251
[36] = system: UACC-257
[37] = system: SK-MEL-28
[38] = system: HOP-18
[39] = system: SK-MEL-2
[40] = system: HCT-116
[41] = system: HL-60
[42] = system: OVCAR-4
[43] = system: UACC-62
[44] = system: SNB-78
[45] = system: UO-31
[46] = system: SR
[47] = system: NCI-H226
[48] = system: HOP-92
[49] = system: SK-OV-3
[50] = system: KM-20L2
[51] = system: K562
[52] = system: EKVX
[53] = system: CCRF-CEM
[54] = system: A498
[55] = system: DMS-114
[56] = system: LXFL 529
[57] = system: DMS-273

Measured: GI50

CCOC(=O)N[C@@H]1C2CC(=O)C(O2)[C@@H]1OC (some centres undefined)
> 100 µM: [9]
inactive: [1] > 100 µM | [2] > 100 µM | [3] > 100 µM | [4] > 100 µM | [5] > 100 µM | [6] > 100 µM | [7] > 100 µM | [8] > 100 µM | [10] > 100 µM | [11] > 100 µM | [12] > 100 µM | [13] > 100 µM | [14] > 100 µM | [15] > 100 µM | [16] > 100 µM | [17] > 100 µM | [18] > 100 µM | [19] > 100 µM | [20] > 100 µM | [21] > 100 µM | [22] > 100 µM | [23] > 100 µM | [24] > 100 µM | [25] > 100 µM | [26] > 100 µM | [27] > 100 µM | [28] > 100 µM | [29] > 100 µM | [30] > 100 µM | [31] > 100 µM | [32] > 100 µM | [33] > 100 µM | [34] > 100 µM | [35] > 100 µM | [36] > 100 µM | [37] 7.08 µM | [38] > 100 µM | [39] > 100 µM | [40] > 100 µM | [41] > 100 µM | [42] > 100 µM | [43] > 100 µM | [44] > 100 µM | [45] > 100 µM | [46] > 100 µM | [47] > 100 µM | [48] > 100 µM | [49] > 100 µM | [50] > 100 µM | [51] > 100 µM | [52] > 100 µM | [53] > 100 µM

c1ccc2c(c1)C1CCCCCC21N1CCOCC1 (centres undefined)
52 µM: [9]
inactive: [1] > 100 µM | [2] 69 µM | [3] > 100 µM | [4] > 100 µM | [5] 52.4 µM | [6] > 100 µM | [7] > 100 µM | [8] > 100 µM | [54] > 100 µM | [10] > 100 µM | [11] 20.6 µM | [12] > 100 µM | [13] > 100 µM | [55] 38.8 µM | [14] 84.5 µM | [15] 34.8 µM | [16] > 100 µM | [56] 50 µM | [17] > 100 µM | [18] > 100 µM | [20] 86.3 µM | [21] > 100 µM | [22] > 100 µM | [23] > 100 µM | [24] > 100 µM | [25] > 100 µM | [26] 44.2 µM | [28] > 100 µM | [29] 29.7 µM | [30] > 100 µM | [31] > 100 µM | [32] 98.2 µM | [33] > 100 µM | [34] 32.6 µM | [35] 78.5 µM | [57] 67.1 µM | [36] > 100 µM | [37] > 100 µM | [39] > 100 µM | [40] 54.2 µM | [41] 44.6 µM | [42] 91 µM | [43] > 100 µM | [44] > 100 µM | [45] > 100 µM | [47] 92.9 µM | [49] > 100 µM | [50] > 100 µM | [51] 45.1 µM | [53] 97.7 µM

Cc1nc2c(ccc3ncccc32)[nH]1
inactive: [1] > 100 µM | [2] > 100 µM | [3] > 100 µM | [4] > 100 µM | [5] > 100 µM | [6] > 100 µM | [7] > 100 µM | [8] > 100 µM | [10] > 100 µM | [11] > 100 µM | [12] > 100 µM | [13] > 100 µM | [55] > 100 µM | [14] > 100 µM | [15] > 100 µM | [16] > 100 µM | [56] > 100 µM | [17] > 100 µM | [18] > 100 µM | [19] > 100 µM | [20] > 100 µM | [21] > 100 µM | [22] > 100 µM | [23] > 100 µM | [24] > 100 µM | [25] > 100 µM | [26] > 100 µM | [27] > 100 µM | [28] > 100 µM | [29] > 100 µM | [30] > 100 µM | [31] > 100 µM | [32] > 100 µM | [33] > 100 µM | [34] > 100 µM | [35] > 100 µM | [57] > 100 µM | [36] > 100 µM | [37] > 100 µM | [38] > 100 µM | [39] > 100 µM | [41] > 100 µM | [42] > 100 µM | [43] > 100 µM | [45] > 100 µM | [48] > 100 µM | [49] > 100 µM | [50] > 100 µM | [51] > 100 µM | [52] > 100 µM | [53] > 100 µM
> 100 µM: [9]

COc1ccc(/C=c2\sc3n(c2=O)C(N)=C(C#N)C(c2ccc(OC)cc2)C=3c2nc3ccccc3[nH]2)cc1 (centres undefined)
inactive: [1] 38.7 µM | [2] 18.6 µM | [3] 33.7 µM | [4] > 10 µM | [5] 45.7 µM | [6] 14.2 µM | [7] 5.02 µM | [8] 78.7 µM | [54] 29.6 µM | [10] 42.1 µM | [11] 19.6 µM | [12] 28.7 µM | [55] 30.8 µM | [14] > 10 µM | [15] 29.6 µM | [16] 16.4 µM | [17] 27.4 µM | [18] > 10 µM | [19] 22.6 µM | [22] 16.1 µM | [23] 44.7 µM | [24] 56.4 µM | [25] 18 µM | [26] 16.9 µM | [27] 55.6 µM | [28] 34.4 µM | [29] > 100 µM | [30] 27.7 µM | [31] > 100 µM | [32] 77.1 µM | [33] 21.4 µM | [34] 29.1 µM | [35] 18 µM | [57] 33.4 µM | [36] 28.9 µM | [37] 18.5 µM | [39] 28.6 µM | [40] 27.2 µM | [41] 41.2 µM | [42] > 100 µM | [43] 79.4 µM | [45] > 100 µM | [46] 39.5 µM | [47] 27 µM | [48] 12.2 µM | [50] 42.2 µM | [51] > 100 µM | [52] 22.6 µM | [53] 39.2 µM
27.1 µM: [9]

Cc1ccc(NC(=O)CC(=O)N2N=C(N(CCC#N)c3cccc(C)c3)CC2c2ccccc2)cc1 (centres undefined)
> 100 µM: [9]
inactive: [1] > 100 µM | [2] > 100 µM | [3] > 100 µM | [4] > 100 µM | [5] > 100 µM | [6] > 100 µM | [7] > 100 µM | [8] > 100 µM | [10] > 100 µM | [11] > 100 µM | [12] > 100 µM | [13] > 100 µM | [55] > 100 µM | [14] > 100 µM | [15] > 100 µM | [16] > 100 µM | [56] > 100 µM | [17] > 100 µM | [18] > 100 µM | [19] > 100 µM | [20] > 100 µM | [21] > 100 µM | [23] > 100 µM | [24] > 100 µM | [26] > 100 µM | [27] > 100 µM | [28] > 100 µM | [29] > 100 µM | [30] > 100 µM | [31] > 100 µM | [32] > 100 µM | [34] > 100 µM | [35] > 100 µM | [57] > 100 µM | [36] > 100 µM | [37] > 100 µM | [38] > 100 µM | [39] > 100 µM | [40] > 100 µM | [41] > 100 µM | [42] > 100 µM | [43] > 100 µM | [44] > 100 µM | [45] > 100 µM | [46] > 100 µM | [47] > 100 µM | [48] > 100 µM | [49] > 100 µM | [50] > 100 µM | [51] > 100 µM | [52] 5.97 µM | [53] > 100 µM
